# Experimental data reported in publication PMC7377239, “Cardiovascular Effects of Polychlorinated Biphenyls and Their Major Metabolites” (Environmental Health Perspectives, 2020).
# Like-named read-outs stand apart in the source and are kept apart here.
# Legend:
# [1] = test system: iCell endothelial cells (human iPSC-derived ECs); assay: Tube formation (tubulogenesis) assay in iCell endothelial cells, 18 h; type: cell-based; conditions: Homo sapiens, Endothelial cell, iPSC-EC tube formation, 18 hr; for activity at 0.1 µM: 0.10 µM; for minimal effective concentration: top concentration 100.00 µM
# Outline: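 Tube formation was measured by calcein AM imaging after overnight compound exposure (37°C, 0.5% DMSO vehicle) of human iPSC-derived ECs, 7,500/well, on reduced-growth-factor Geltrex in starvation medium. Vehicle-normalized data fitted to four-parameter logistic; POD set at one vehicle SD; without response, 100 μM taken as NOAEL.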
# [2] = test system: HUVECs; assay: Tube formation (tubulogenesis) assay in HUVECs, 18 h; type: cell-based, human; conditions: Homo sapiens, HUVEC, 18 h, HUVECs; for activity at 0.1 µM: 0.10 µM; for minimal effective concentration: top concentration 100.00 µM
# Outline: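 HUVECs (passage 1–5) seeded on reduced-growth-factor basement membrane and exposed to compounds overnight at 37°C, 5% CO2, in 2× maintenance medium with 12.5 ng/mL VEGF; 0.5% DMSO vehicle. Calcein AM-stained tube networks imaged and analysed; vehicle-normalized readouts fit to four-parameter logistic, POD set at one SD of vehicle means.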
# [3] = 0.00 µM control = 100.00, read-out: endo.mtl.18hr
# [4] = 0.00 µM control = 100.00, read-out: endo.tlps.18hr
# [5] = 0.00 µM control = 100.00, read-out: endo.tta.18hr
# [6] = 0.00 µM control = 100.00, read-out: endo.ttl.18hr
# [7] = 0.00 µM = 100.00, read-out: huvec.mtl.18hr
# [8] = 0.00 µM = 100.00, read-out: huvec.tlps.18hr
# [9] = 0.00 µM = 100.00, read-out: huvec.tta.18hr
# [10] = 0.00 µM = 100.00, read-out: huvec.ttl.18hr
compound,measurement,setting,value
Clc1ccc(-c2ccccc2)cc1 [PCB3],activity at 0.01 µM,[1]; [3],114%
same,activity at 0.01 µM,[1]; [4],108%
same,activity at 0.01 µM,[1]; [5],123%
same,activity at 0.01 µM,[1]; [6],120%
same,activity at 0.1 µM,[1]; [3],106%
same,activity at 0.1 µM,[1]; [4],111%
same,activity at 0.1 µM,[1]; [5],102%
same,activity at 0.1 µM,[1]; [6],98.7%
same,activity at 1 µM,[1]; [3],119%
same,activity at 1 µM,[1]; [4],171%
same,activity at 1 µM,[1]; [5],126%
same,activity at 1 µM,[1]; [6],123%
same,activity at 10 µM,[1]; [3],118%
same,activity at 10 µM,[1]; [4],103%
same,activity at 10 µM,[1]; [5],109%
same,activity at 10 µM,[1]; [6],111%
same,activity at 100 µM,[1]; [3],107%
same,activity at 100 µM,[1]; [4],113%
same,activity at 100 µM,[1]; [5],93.3%
same,activity at 100 µM,[1]; [6],95.4%
same,minimal effective concentration,[1]; read-out: endo.mtl.18hr POD,100 µM
same,minimal effective concentration,[1]; read-out: endo.tlps.18hr POD,100 µM
same,minimal effective concentration,[1]; read-out: endo.tta.18hr POD,100 µM
same,minimal effective concentration,[1]; read-out: endo.ttl.18hr POD,100 µM
same,activity at 0.01 µM,[2]; [7],96.2%
same,activity at 0.01 µM,[2]; [8],59.5%
same,activity at 0.01 µM,[2]; [9],68%
same,activity at 0.01 µM,[2]; [10],71.6%
same,activity at 0.1 µM,[2]; [7],97.7%
same,activity at 0.1 µM,[2]; [8],91.8%
same,activity at 0.1 µM,[2]; [9],96.2%
same,activity at 0.1 µM,[2]; [10],104%
same,activity at 1 µM,[2]; [7],87%
same,activity at 1 µM,[2]; [8],74.7%
same,activity at 1 µM,[2]; [9],76.6%
same,activity at 1 µM,[2]; [10],81.5%
same,activity at 10 µM,[2]; [7],96.7%
same,activity at 10 µM,[2]; [8],74.2%
same,activity at 10 µM,[2]; [9],62%
same,activity at 10 µM,[2]; [10],66.4%
same,activity at 100 µM,[2]; [7],70.8%
same,activity at 100 µM,[2]; [8],39.1%
same,activity at 100 µM,[2]; [9],26%
same,activity at 100 µM,[2]; [10],28%
same,minimal effective concentration,[2]; read-out: huvec.mtl.18hr POD,25.3 µM
same,minimal effective concentration,[2]; read-out: huvec.tlps.18hr POD,100 µM
same,minimal effective concentration,[2]; read-out: huvec.tta.18hr POD,0.67 µM
same,minimal effective concentration,[2]; read-out: huvec.ttl.18hr POD,0.7 µM
Clc1cccc(-c2cccc(Cl)c2)c1 [PCB11],activity at 0.01 µM,[1]; [3],98.5%
same,activity at 0.01 µM,[1]; [4],118%
same,activity at 0.01 µM,[1]; [5],148%
same,activity at 0.01 µM,[1]; [6],143%
same,activity at 0.1 µM,[1]; [3],102%
same,activity at 0.1 µM,[1]; [4],117%
same,activity at 0.1 µM,[1]; [5],118%
same,activity at 0.1 µM,[1]; [6],116%
same,activity at 1 µM,[1]; [3],105%
same,activity at 1 µM,[1]; [4],125%
same,activity at 1 µM,[1]; [5],132%
same,activity at 1 µM,[1]; [6],126%
same,activity at 10 µM,[1]; [3],91.6%
same,activity at 10 µM,[1]; [4],140%
same,activity at 10 µM,[1]; [5],80.8%
same,activity at 10 µM,[1]; [6],80.3%
same,activity at 100 µM,[1]; [3],105%
same,activity at 100 µM,[1]; [4],114%
same,activity at 100 µM,[1]; [5],150%
same,activity at 100 µM,[1]; [6],150%
same,minimal effective concentration,[1]; read-out: endo.mtl.18hr POD,100 µM
same,minimal effective concentration,[1]; read-out: endo.tlps.18hr POD,100 µM
same,minimal effective concentration,[1]; read-out: endo.tta.18hr POD,100 µM
same,minimal effective concentration,[1]; read-out: endo.ttl.18hr POD,100 µM
same,activity at 0.01 µM,[2]; [7],107%
same,activity at 0.01 µM,[2]; [8],122%
same,activity at 0.01 µM,[2]; [9],138%
same,activity at 0.01 µM,[2]; [10],122%
same,activity at 0.1 µM,[2]; [7],113%
same,activity at 0.1 µM,[2]; [8],126%
same,activity at 0.1 µM,[2]; [9],133%
same,activity at 0.1 µM,[2]; [10],124%
same,activity at 1 µM,[2]; [7],109%
same,activity at 1 µM,[2]; [8],130%
same,activity at 1 µM,[2]; [9],157%
same,activity at 1 µM,[2]; [10],140%
same,activity at 10 µM,[2]; [7],97.8%
same,activity at 10 µM,[2]; [8],94.6%
same,activity at 10 µM,[2]; [9],86.1%
same,activity at 10 µM,[2]; [10],87.2%
same,activity at 100 µM,[2]; [7],81.4%
same,activity at 100 µM,[2]; [8],77.5%
same,activity at 100 µM,[2]; [9],85%
same,activity at 100 µM,[2]; [10],78.8%
same,minimal effective concentration,[2]; read-out: huvec.mtl.18hr POD,100 µM
same,minimal effective concentration,[2]; read-out: huvec.tlps.18hr POD,41.8 µM
same,minimal effective concentration,[2]; read-out: huvec.tta.18hr POD,100 µM
same,minimal effective concentration,[2]; read-out: huvec.ttl.18hr POD,100 µM
